Laboratory results from patent US20040157240A1, “Diagnostic assay and related products” (The Brigham & Women's Hospital, Inc., priority 2002, published 2004).

Key:
[1] = ACRN (SOCS/SLIC) 6-week run-in period on inhaled triamcinolone, change in FEV1; format: in vivo, human; details: on inhaled corticosteroids, evaluated at 6 weeks; mean ± standard deviation; N 336
Excerpt: Two completed trials conducted by the ACRN (Asthma Clinical Research Network), the salmeterol or corticosteroids (SOCS) (54) and salmeterol±inhaled corticosteroids (SLIC)
Details regarding the entry criteria, run-in period and randomization have been published with the primary trial results (54, 55). Of the 339 subjects eligible for randomization, 336 had DNA available; 66.7% of these were Caucasian, forming the basis of the second replication sample.
(§1) The primary outcome measure of the association analyses was percent change in FEV1 over time in response to inhaled steroids, defined as the FEV1 difference from baseline to eight weeks for the Adult Study and CAMP, and to six weeks in ACRN, divided by the baseline value.

[2] = system: β2-adrenergic receptor gene; details: cited from earlier work
[3] = Adult Study (Forest study): 8-week clinical trial of inhaled flunisolide vs. standard inhaled corticosteroid therapy, change in FEV1; format: in vivo, human; details: on inhaled corticosteroids, evaluated at 8 weeks; mean ± standard deviation; N 470
Excerpt: The Forest study (also known as the Adult Study) was an 8 week clinical trial used to compare the effect of once daily high dose inhaled flunisolide vs. “standard inhaled corticosteroid therapy” (performed by Forest Pharmaceuticals). […] Of these participants, 7% were African American, 3% were Hispanic and 2% were other. As 88% of these participants were Caucasian, analyses focus on this group. Additionally, females accounted for 58.5% of the participants.
The Adult Study was a multicenter 8-week randomized clinical trial comparing the effect of once-daily high-dose inhaled flunisolide vs. standard inhaled corticosteroid therapy. Inclusion criteria were a history of asthma, >12% improvement in FEV1 with albuterol and using inhaled steroids at randomization. Exclusion criteria were non-asthma pulmonary disease, smoking (≧10 pack-years) and recent asthma exacerbations requiring systemic steroids. Subjects were phoned weekly and had spirometry at 4 and 8 weeks.

[4] = CAMP (Childhood Asthma Management Program): clinical trial of inhaled budesonide vs. nedocromil vs. placebo, change in FEV1; format: in vivo, human
Excerpt: The Childhood Asthma Management Program (CAMP) was a randomized, double-masked, long term clinical trial testing the safety and efficacy of inhaled budesonide vs. nedocromil vs. placebo (27). The mean duration of follow-up was 4 years (28). 311 children (males and females for a variety of race and age groups) were randomized to the steroid group, with a mean improvement of 6.8% in their FEV1 at one year. Of these, 65% were Caucasian. These formed the basis for our replication sample.
CAMP is a multicenter, randomized, double-blinded clinical trial testing the safety and efficacy of inhaled budesonide vs. nedocromil vs. placebo over a mean of 4.3 years. Trial design and methodology have been published (27, 28). The replication sample subjects were the Caucasian CAMP children randomized to the steroid group, evaluated at their 2 month follow-up visit.
as §1

With C[C@]12C=CC(=O)C=C1CC[C@H]1[C@@H]3C[C@@H](O)[C@](O)(C(=O)CO)[C@@]3(C)C[C@H](O)[C@@]12F [Triamcinolone] the “Mean Change in FEV1” value [1] was 6.7 ± 19.7%.

In the case of CC(C)(C)NCC(O)c1ccc(O)c(CO)c1 (stereo not drawn) [albuterol], the acute bronchodilator response ([2]; Arg/Arg children than Gly/Gly children) is given as “more likely” and the “peak expiratory flow rates” value ([2]; regular utilization, Arg/Arg at position 16, compared to Arg/Arg receiving prn and Gly/Gly) is given as “significantly decrease”.

With CC1(C)O[C@@H]2C[C@H]3[C@@H]4C[C@H](F)C5=CC(=O)C=C[C@]5(C)[C@H]4[C@@H](O)C[C@]3(C)[C@]2(C(=O)CO)O1 [Flunisolide] the “Mean Change in FEV1” value [3] was 7.0 ± 19.3%.

With CCCC1O[C@@H]2C[C@H]3[C@@H]4CCC5=CC(=O)C=C[C@]5(C)[C@H]4[C@@H](O)C[C@]3(C)[C@]2(C(=O)CO)O1 (stereo partly drawn) [Budesonide] the “mean improvement in FEV1” value ([4]; at one year, 311 children randomized to the steroid group) was 6.8% and the “Mean Change in FEV1” value ([4]; on inhaled corticosteroids, evaluated at 8 weeks, mean ± standard deviation, N 311) was 8.3 ± 14.1%.
